From paper PMC5898707, “Piperazinyl fragment improves anticancer activity of Triapine” (PLoS ONE, 2018)

Tests used:
HCT116 p53^+/+ = experiment: Cytotoxicity MTS assay, 72 h; type: cell-based, human; conditions: Homo sapiens, HCT-116; HCT116 p53^+/+; 72 h; MTS
Description: (§1) The human colon carcinoma cell line HCT116 wild type (p53^+/+), human breast carcinoma cell line MCF-7 and glioblastoma cell line Hs683 were obtained from ATCC. The glioma cell line U-251 was purchased from Sigma Aldrich and the normal human fibroblast cell lines NHDF from PromoCell. The human colon cancer cell line HCT116 with a p53 deletion (p53^-/-) was kindly provided by Prof. M. Rusin from the Maria Sklodowska-Curie Memorial Cancer Centre and Institute of Oncology in Gliwice, Poland. Cells were grown as monolayer cultures in Dulbecco’s modified Eagle’s medium with an antibiotic gentamicin (200 μL/100 mL medium) in 75 cm^2 flasks (Nunc). DMEM for HCT116, MCF-7, U-251, Hs683 were supplemented with 12% heat-inactivated fetal bovine serum (Sigma) and for NHDF with 15% non-inactivated fetal bovine serum (Sigma). All the cell lines were cultured under standard conditions at 37°C in a humidified atmosphere at 5% CO2.
(§2) The cells were seeded in 96-well plates (Nunc) at a density of 5,000 cells/well (HCT116, MCF-7, U-251, Hs683) and 4,000 cells/well (NHDF) and incubated at 37°C for 24 h. The assay was performed following a 72 h incubation with varying concentrations of the compounds that were tested. Then, 20 μL of The CellTiter 96®AQueous One Solution-MTS (Promega) solution was added to each well (with 100 μL DMEM without phenol red) and incubated for 1 h at 37°C. The optical densities of the samples were analyzed at 490 nm using a multi-plate reader (Synergy 4, Bio Tek). Results were expressed as a percentage of the control and calculated as the inhibitory concentration (IC50) values using GraphPad Prism 5. The IC50 parameter was defined as the compound concentration that was necessary to reduce the proliferation of cells to 50% of the untreated control. Each individual compound was tested in triplicate in a single experiment with each experiment being repeated four to five times.

HCT116 p53^-/- = experiment: Cytotoxicity MTS assay, 72 h; type: cell-based, human; conditions: Homo sapiens, HCT-116; HCT116 p53^-/-; 72 h; MTS
Description: as §1, §2

Hs683 = experiment: Cytotoxicity MTS assay, 72 h; type: cell-based, human; conditions: Homo sapiens, Hs 683; Hs683; 72 h; MTS
Description: as §1, §2

MCF-7 = experiment: Cytotoxicity MTS assay, 72 h; type: cell-based, human; conditions: Homo sapiens, MCF7; MCF-7; 72 h; MTS
Description: as §1, §2

U-251 = experiment: Cytotoxicity MTS assay, 72 h; type: cell-based, human; conditions: Homo sapiens; U-251; 72 h; MTS
Description: as §1, §2

NHDF = experiment: Cytotoxicity MTS assay, 72 h; type: cell-based; conditions: Homo sapiens, NHDF normal fibroblasts
Description: as §1, §2

[1] = tabulated value; cited from earlier work

Compound | IC50 (HCT116 p53^+/+) [nM] | IC50 (HCT116 p53^-/-) [nM] | IC50 (Hs683) [nM] | IC50 (MCF-7) [nM] | IC50 (U-251) [nM] | IC50 (NHDF) [nM] | melting point [°C] | logK [1]
Nc1cccnc1C=NNC(=S)N1CCN(c2ccccc2)CC1 [L^1, N’-[(3-aminopyridin-2-yl)methylidene]-4-phenylpiperazine-1-carbothiohydrazide] | 1520 ± 445 | 128 ± 12 | 1440 ± 358 | 532 ± 145 | 403 ± 90 | > 25000 | 189 to 190 | 
Nc1cccnc1C=NNC(=S)N1CCN(c2ccc(F)cc2)CC1 [L^2, N’-[(3-aminopyridin-2-yl)methylidene]-4-(4-fluorophenyl)piperazine-1-carbothiohydrazide] | 526 ± 77 | 152 ± 74 | 2490 ± 512 | 360 ± 111 | 887 ± 158 | > 25000 | 210 to 211 | 
COc1ccc(N2CCN(C(=S)NN=Cc3ncccc3N)CC2)cc1 [L^4, N’-[(3-aminopyridin-2-yl)methylidene]-4-(4-methoxyphenyl)piperazine-1-carbothiohydrazide] | 1330 ± 209 | 185 ± 88 | 4460 ± 954 | 424 ± 149 | 649 ± 170 | > 25000 | 195 to 196 | 
N#Cc1ccc(N2CCN(C(=S)NN=Cc3ncccc3N)CC2)cc1 [L^5, N’-[(3-aminopyridin-2-yl)methylidene]-4-(4-cyanophenyl)piperazine-1-carbothiohydrazide] | 1450 ± 452 | 746 ± 354 | 10000 ± 2640 | 3810 ± 1020 | 2570 ± 675 | > 25000 | 209 to 210 | 
Nc1cccnc1C=NNC(=S)N1CCN(c2ccc(C(F)(F)F)cc2[N+](=O)[O-])CC1 [L^6, N’-[(3-aminopyridin-2-yl)methylidene]-4-[2-nitro-4-(trifluoromethyl)phenyl]piperazine-1-carbothiohydrazide] | 139 ± 16 | 270 ± 7 | 1890 ± 812 | 470 ± 97 | 381 ± 42 | > 25000 | 179 to 180 | 
CC(C)(C)OC(=O)N1CCN(C(=S)NN=Cc2ncccc2N)CC1 [L^7, tert-butyl 4-({2-[(3-aminopyridin-2-yl)methylidene]hydrazinyl}carbonothioyl)piperazine-1-carboxylate] | 762 ± 238 | 1130 ± 49 | 4620 ± 1030 | 2540 ± 400 | 3080 ± 1270 | > 25000 | 193 to 194 | 
Nc1cccnc1C=NNC(=S)N1CCN(c2ccccn2)CC1 [L^8, N’-[(3-aminopyridin-2-yl)methylidene]-4-(pyridin-2-yl)piperazine-1-carbothiohydrazide] | 1900 ± 292 | 139 ± 20 | 1160 ± 307 | 1120 ± 113 | 1070 ± 280 | > 25000 | 210 to 211 | 
Nc1cccnc1C=NNC(=S)N1CCN(c2ccc(C(F)(F)F)cn2)CC1 [L^9, N’-[(3-aminopyridin-2-yl)methylidene]-4-[5-(trifluoromethyl)pyridin-2-yl]piperazine-1-carbothiohydrazide] | 422 ± 113 | 123 ± 61 | 844 ± 238 | 204 ± 24 | 277 ± 58 | > 25000 |  | 
Nc1cccnc1C=NNC(=S)N1CCN(c2ncc(C(F)(F)F)cc2Cl)CC1 [L^10, N’-[(3-aminopyridin-2-yl)methylidene]-4-[3-chloro-5-(trifluoromethyl)pyridin-2-yl]piperazine-1-carbothiohydrazide] | 170 ± 15 | 159 ± 11 | 195 ± 21 | 258 ± 40 | 137 ± 16 | > 25000 | 199 to 200 | 
Nc1cccnc1C=NNC(=S)N1CCN(c2ncccn2)CC1 [L^11, N’-[(3-aminopyridin-2-yl)methylidene]-4-(pyrimidin-2-yl)piperazine-1-carbothiohydrazide] | 668 ± 45 | 650 ± 55 | 2840 ± 581 | 1730 ± 388 | 1270 ± 374 | > 25000 | 198 to 199 | 
Nc1cccnc1C=NNC(=S)N1CCN(c2cnccn2)CC1 [L^12, N’-[(3-aminopyridin-2-yl)methylidene]-4-(pyrazin-2-yl)piperazine-1-carbothiohydrazide] | 435 ± 108 | 342 ± 42 | 2600 ± 237 | 2220 ± 638 | 743 ± 109 | > 25000 | 217 to 218 | 
c1ccncc1 [pyridine] |  |  |  |  |  |  |  | 5.23
